From US20240295545A1, “GLIOMA THERAPY” (Imperial College Innovations Limited, priority 2021, published 2024)
Entries after “also recorded” stand apart in the source; their conditions may differ.

Tests used:
[1] = target: T1, mitochondrial F1Fo ATP Synthase c-subunit leak channel (Sus scrofa, UniProt A1XQS5); assay: ACMA assay (H+ leak in submitochondrial vesicles); format: biochemical, pig; details: negative control; swine brain SMVs
T1 construct: isolated swine brain submitochondrial vesicles (SMVs), which are enriched for the F1Fo ATP synthase; from tissue; host or cells: pig (swine) brain, submitochondrial vesicles
T1 sequence (A1XQS5 62-136): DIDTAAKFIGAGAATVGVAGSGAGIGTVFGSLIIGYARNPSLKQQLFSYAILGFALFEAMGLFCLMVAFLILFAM
Description: ACMA assay buffer (concentrations used throughout the assay):
ACMA solution: • Stock solution of 1 mg/ml (3.87 mM) ACMA in 100% ethanol • Diluted to working solution (3 μM) in assay buffer • Aliquots of 10 μL to be added to wells
• 1. Sub-mitochondrial vesicles (SMVs) isolated from pig brains were thawed and prepared to 0.17 μg/μL in ACMA assay buffer. • 2. Drug solutions were added to 386-well plates at a final concentration of 10 μM. • 3. Sub-mitochondrial vesicles (SMVs), isolated from pig brains, were thawed and prepared to 0.17 μg/μL in ACMA assay buffer. 30 μL of this solution (containing 5 μg of polypeptide, as measured via the QuickStart Bradford Protein Assay (Bio-Rad, UK)) was added to each well. • 4. Stock solution of 1 mg/ml (3.87 mM) ACMA (9-amino-6-chloro-2-methoxyacridine) were diluted to working solution 3 μM in assay buffer. Aliquots of 10 μL were added to each well (final concentration of 0.75 μM). • 5. The samples were mixed and incubated at room temperature for 20 mins. • 6. The ACMA fluorescence was measured at 1 min intervals using a Tecan Infinite M200 plate reader—excitation 412 nm, emission 480 nm. • 7. […] Fluorescence was measured quickly after addition of ATP for another 7 mins (1 min intervals). […]

[2] = tested on: GBM1 cells; assay: Glioma suppression assay (SRB proliferation); format: cell-based, human; details: in vitro; FIG. 4D
Description: • 1. Without removing the cell culture medium, gently add 50% cold TCA to each well (the final concentration of TCA should be 10%), and incubate the plates at 4° C. for 1 h. For 150 μL medium volume in each well, add 30 μL of 50% TCA. • 2. Wash the plates 4 times with slow-running tap water. Then allow the plates to air-dry at RT. After fixing and drying, the plates can be stored indefinitely at RT. • 3. Add 0.4% SRB solution to each well (e.g. 80 μL/well). Leave at room temperature for 1 h (no shaking) and then quickly rinse the plates 4 times with 1% acetic acid to remove unbound dye. Then allow the plates to dry at RT. Stained and dried plates can be stored indefinitely at RT. • 4. Add 10 mM Tris base solution to each well (e.g. 80 μL/well) and shake the plate for 5 min to solubilize the protein-bound dye. Alternatively, if a shaker is not available, SRB can be solubilized after 30 min in 10 mM Tris base solution. • 5. Measure the OD at […] in a microplate reader. The suboptimal wavelengths should be 490-530 nm.
1000 Grade IV cells (cell line 1 in FIG. 2) were plated in cell culture medium (10% FBS in DMEM) per each well in 96-well plates. On day 1, the cells were treated with 10 μM of the indicated drugs and incubated at 37° C. for 5 days. SRB assay was performed prior to addition of the drugs and after 5 days. The values were normalized against those of the control (untreated cultures). […]

[3] = tested on: grade III astrocytoma cells; assay: Proliferation of primary tumour cells incubated with mitochondrial toxins, grade III; format: cell-based, human; details: rotenone 100 nM, oligomycin 50 nM, UK5099 10 μM; hypoxia and normoxia; FIG. 1B
Excerpt: (§1) The cell lines employed were low-passage lines, derived from tumour tissue. The cells were obtained from tumour tissue of a highly proliferative glioma (which was a grade IV/glioblastoma multiforme glioma). For comparison, cells were also obtained from a tumour tissue of a comparatively slow-growing glioma (which was a grade III glioma).
(§2) The inventors compared the metabolic and mitochondrial energetic profile of slow-growing glioma/astrocytoma cells (chosen in particular due to their relatively slow growth rate) to that in cells of a highly proliferative glioma primary tumour cells by performing ‘hypoxia’ experiments with primary tumour cells, in which primary tumour cells were deprived of adequate oxygen supply and compared with control cells not so deprived (‘normoxia’). […] The slow growing cells were selected from a grade III glioma, and the highly proliferative cells were chosen from a grade IV glioma i.e. glioblastoma multiforme cells.
(§3) To further investigate this, primary tumour cells were incubated (both under hypoxia and normoxia) with the toxins rotenone (100 nM), oligomycin (50 nM), a combination of rotenone and oligomycin (100 nM and 50 nM, respectively) or UK5099 (10 μM).

[4] = tested on: Grade IV (GBM) cells; assay: Proliferation of primary tumour cells incubated with mitochondrial toxins, GBM; format: cell-based, human; details: rotenone 100 nM, oligomycin 50 nM, UK5099 10 μM; hypoxia and normoxia; FIG. 1B
Excerpt: as §1, §2, §3

Structure (SMILES) | ATP response in ACMA assay [1] | effect on proliferation of GBM1 cell line (highest rate of proliferation) [2] | effect on proliferation of grade III astrocytoma cells [3] | effect on proliferation of GBM cells [4]
N#CC(C#N)=NNc1ccc(OC(F)(F)F)cc1 [FCCP, carbonylcyanide p-trifluoromethoxyphenylhydrazone] | attenuated | – | – | –
Cn1nnc2c(C(N)=O)ncn2c1=O [TMZ, temozolomide] | – | no effect | – | –
N#C/C(=C\c1cn(-c2ccccc2)c2ccccc12)C(=O)O [UK5099] | – | – | without a significant effect | decreases the proliferation; also recorded: impeded the proliferation
CC[C@H]1/C=C/C=C/C[C@@H](C)[C@H](O)[C@@](C)(O)C(=O)[C@@H](C)[C@H](O)[C@@H](C)C(=O)[C@@H](C)[C@H](O)[C@@H](C)/C=C/C(=O)O[C@@H]2[C@H](C)[C@H](CC1)O[C@]1(CC[C@H](C)[C@H](C[C@@H](C)O)O1)[C@H]2C [oligomycin] | attenuated | – | without a significant effect | decreases the proliferation; also recorded: impeded the proliferation
C=C(C)[C@H]1Cc2c(ccc3c2O[C@@H]2COc4cc(OC)c(OC)cc4[C@@H]2C3=O)O1 [rotenone] | – | – | without a significant effect | decreases the proliferation; also recorded: impeded the proliferation
